Six compounds from ChEMBL document CHEMBL2396531, “Hybrid molecule from O2-(2,4-dinitrophenyl)diazeniumdiolate and oleanolic acid: a glutathione S-transferase π-activated nitric oxide prodrug with selective anti-human hepatocellular carcinoma activity and improved stability” (J Med Chem, 2013) can be followed below.

As usually defined, the Vmax is the rate approached at saturating substrate. As usually defined, the Km is the substrate concentration at which the rate is half of its maximum. What is called inhibition in vivo is the share of the control response that was lost under treatment. What is called LD50 is the dose at which mortality reaches 50%. As a reminder, the IC50 is the concentration that gives 50% inhibition. Lower therefore signals greater potency in that assay.

Each structure is given as a SMILES string.

Series [1] can be described thus: Activity at GSTalpha (unknown origin) assessed per mg protein by Michaelis-Menten equation. To be noted: human. The format is ADME.
A short description of series [2]: (§1) Activity at GSTalpha (unknown origin) by Michaelis-Menten equation. The format is ADME. To be noted: human.
The subject of the next series is GSTalpha. The description is as §1. To be noted: human, GSTalpha enzyme. The format is ADME.
The nature of series [3]: Activity at GSTalpha (unknown origin) assessed as compound decomposition in presence of 1mM GSH at 40 uM by microplate reader analysis. The format is ADME. As to conditions: human; call rule not given here.
Series [4] concerns the target Glutathione S-transferase P (Homo sapiens, UniProt P09211). Description: Activity at GSTpi (unknown origin) assessed as compound decomposition in presence of 1mM GSH at 40 uM by microplate reader analysis. Format: ADME.
Series [5] concerns H22. Nature of the series: Antitumor activity against mouse H22 cells […] in mouse assessed as inhibition of tumor growth at 38.3 umol/kg, ip after 14 days relative to vehicle-treated control. Format: functional. As to conditions: 336 h.
The subject of series [6] is H22. Nature of the series: Antitumor activity against mouse H22 cells […] in mouse assessed as inhibition of tumor growth at 19.2 umol/kg, ip after 14 days relative to vehicle-treated control. Format: functional. As to conditions: 336 h.
In series [7] the test system is H22. Description: Antitumor activity against mouse H22 cells […] in mouse assessed as inhibition of tumor growth at 9.6 umol/kg, ip after 14 days relative to vehicle-treated control. The format is functional. To be noted: 336 h.
Series [8] in a line: Acute toxicity in ip dosed mouse after 14 days. The format is organism-based. To be noted: in vivo.
Series [9] concerns Mus musculus. Description: Acute toxicity in mouse assessed as activity at 196.1 umol/kg, ip after 14 days. The format is organism-based. As to conditions: in vivo, 336 h.
For series [10], the system named is Mus musculus. Nature of the series: Acute toxicity in mouse assessed as abnormality in drinking at 196.1 umol/kg, ip after 14 days. Format: organism-based. To be noted: in vivo, 336 h.
In series [11] the test system is Mus musculus. Description: Acute toxicity in mouse assessed as body weight at 196.1 umol/kg, ip after 14 days. Format: organism-based. To be noted: in vivo, 336 h.
The subject of series [12] is Mus musculus. Nature of the series: Acute toxicity in mouse assessed as abnormality in eating at 196.1 umol/kg, ip after 14 days. The format is organism-based. To be noted: in vivo, 336 h.
In series [13] the test system is Mus musculus. Description: Acute toxicity in mouse assessed as mortality at 196.1 umol/kg, ip after 14 days. Format: organism-based. To be noted: in vivo, 336 h.
Series [14] has as its system Mus musculus. Description: Acute toxicity in mouse assessed as mortality at 383.1 umol/kg, ip after 14 days. To be noted: in vivo, 336 h. The format is organism-based.
Series [15] in a line: Metabolic stability in Sprague-Dawley rat plasma at 40 uM after 9 hrs by HPLC analysis. Format: ADME, cell-free. To be noted: read-out: Stability.
The next series concerns Plasma. Description: Metabolic stability in Sprague-Dawley rat plasma at 40 uM after 6 hrs by HPLC analysis. The format is ADME, cell-free.
Series [16] can be described thus: Chemical stability in PBS buffer at pH 7.4 in presence of 5 mM GSH at 37 degC after 100 mins by HPLC analysis. Format: physicochemical. As to conditions: PBS buffer with 5 mM GSH, read-out: Stability.
Series [17] is described as follows: Chemical stability in PBS buffer at pH 7.4 in presence of 1 mM GSH at room temperature for 30 mins by spectrophotometry. The format is physicochemical. To be noted: pH 7.4, 0.5 h.
Series [18] concerns HepG2. Nature of the series: Induction of intracellular NO release in human HepG2 cells at 30 uM after 6 hrs by Griess assay relative to PABA/NO. The format is functional. (Nitrite, measured by Griess reagent, commonly stands in for NO production.)
In series [19] the test system is HepG2. Nature of the series: Induction of intracellular NO release in human HepG2 cells at 30 uM after 6 hrs by Griess assay relative to JS-K. Format: functional.
The subject of series [20] is HepG2. Description: Cytotoxicity against human HepG2 cells assessed as cell viability at 3 uM after 24 hrs by MTT assay. As to conditions: HepG2, 24 h, read-out: Activity. The format is functional. Background: Tetrazolium assays rely on reduction of a dye to a coloured formazan, in cell work by metabolically active cells.
The subject of series [21] is HepG2. Description: Cytotoxicity against human HepG2 cells assessed as cell viability at 3 uM after 24 hrs by MTT assay in presence of EA. As to conditions: HepG2, 24 h, read-out: Activity. The format is functional.
Series [22] in a line: Cytotoxicity against human LO2 cells at 1 to 4 uM after 24 hrs by MTT assay. The format is cell-based. To be noted: l02, 24 h.
Series [23] relates to SMMC-7721. Description: Cytotoxicity against human SMMC7721 cells after 72 hrs by MTT assay. Format: functional, cell-based. To be noted: SMMC-7721, 72 h.
For series [24], the system named is HepG2. Description: Cytotoxicity against human HepG2 cells after 72 hrs by MTT assay. Format: functional, cell-based. As to conditions: HepG2, 72 h.
Series [25] concerns Bel-7402. Description: Cytotoxicity against human Bel7402 cells after 72 hrs by MTT assay. Format: functional, cell-based. To be noted: Bel-7402, 72 h.
For series [26], the system named is HepG2. Description: Cytotoxicity against human HepG2 cells after 48 hrs by MTT assay. The format is functional, cell-based. As to conditions: HepG2, 48 h.
Series [27] has as its system Bel-7402. Nature of the series: Cytotoxicity against human Bel7402 cells at 30 uM after 24 hrs by MTT assay. Format: functional.
Series [28] deals with HepG2. Nature of the series: Cytotoxicity against human HepG2 cells after 24 hrs by MTT assay. The format is functional, cell-based. To be noted: HepG2, 24 h.
Series [29] deals with HepG2. Nature of the series: Cytotoxicity against human HepG2 cells at 30 uM after 24 hrs by MTT assay. The format is functional.
For series [30], the system named is SMMC-7721. Description: Cytotoxicity against human SMMC7721 cells at 30 uM after 24 hrs by MTT assay. Format: functional.
Series [31] can be described thus: Chemical stability in PBS buffer at pH 7.4 in presence of 4 mM GSH at 37 degC after 15 to 20 mins by HPLC analysis. Format: physicochemical.
Series [32] concerns H22. Description: Antitumor activity against mouse H22 cells […] in mouse assessed as inhibition of tumor growth at 153.8 umol/kg, ip after 14 days relative to vehicle-treated control. As to conditions: 336 h. Format: functional.

Sequence of Glutathione S-transferase P (P09211 whole entry): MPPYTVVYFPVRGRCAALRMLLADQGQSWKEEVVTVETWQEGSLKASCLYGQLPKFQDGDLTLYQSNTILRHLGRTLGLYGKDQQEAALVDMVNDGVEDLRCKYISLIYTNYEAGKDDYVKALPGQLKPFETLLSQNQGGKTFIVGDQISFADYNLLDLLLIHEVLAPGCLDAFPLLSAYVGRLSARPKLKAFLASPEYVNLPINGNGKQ

Take `CN(CCO)/[N+]([O-])=N\Oc1cc(N2CCN(CC(=O)O[C@H]3CC[C@]4(C)[C@H]5CC=C6[C@@H]7CC(C)(C)CC[C@]7(C(=O)O[C@@H]7O[C@H](CO)[C@H](O)[C@H](O)[C@H]7O)CC[C@@]6(C)[C@]5(C)CC[C@H]4C3(C)C)CC2)c([N+](=O)[O-])cc1[N+](=O)[O-]`: the Vmax in series [1] amounted to 1.69 µmol/min. Besides, in [2], the Kcat was determined as 0.72 s⁻¹. Moreover, in the series with GSTalpha, the Km was found to be 264 µM. The Activity entry in series [3] is recorded as “Active”; in series [4], “Active”; with Mus musculus [9], “Non-toxic”; in the series on Mus musculus [10], “Non-toxic”; in the series with Mus musculus [11], “Non-toxic”; in the series on Mus musculus [12], “Non-toxic”. Moreover, the figures for the Activity result (with Mus musculus [13]; with Mus musculus [14]; in series [22]) were “Non-toxic”, “Toxic” and “Toxic”, respectively. Besides, in the series with H22 [5], the inhibition in vivo at 38.3 µmol/kg amounted to 68.4%. Further, the inhibition in vivo at 19.2 µmol/kg with H22 [6] was 36.1%. The inhibition in vivo at 9.6 µmol/kg in the series with H22 [7] was determined as 13.4%. The compound also registered an LD50 at 336 h in [8] of 250 µmol/kg. In addition, the remaining at 9 h, 40 µM in series [15] stood at 80%. Further, the Stability entry (in the series on Plasma; in series [17]) was “Stable” in each case. The remaining at 100 min in series [16] was 78%. The Ratio in the series on HepG2 [18] and in the series with HepG2 [19] was 2 each time. The values for the viability at 3 µM in the series with HepG2 [20] and in the series with HepG2 [21] were 17% and 41.7%, respectively. In addition, the IC50 was 2.3 µM in the series with SMMC-7721 [23]; 1.41 µM with HepG2 [24]; 1.45 µM in the series with Bel-7402 [25]; 2.11 µM with HepG2 [26]; 3.38 µM with HepG2 [28]. Besides, the Cytotoxicity in the series with Bel-7402 [27], in the series on HepG2 [29] and with SMMC-7721 [30] was 80% in each case.
With `CN(CCO)/[N+]([O-])=N\Oc1cc(NCCC(=O)O[C@H]2CC[C@]3(C)[C@H]4CC=C5[C@@H]6CC(C)(C)CC[C@]6(C(=O)O[C@@H]6O[C@H](CO)[C@H](O)[C@H](O)[C@H]6O)CC[C@@]5(C)[C@]4(C)CC[C@H]3C2(C)C)c([N+](=O)[O-])cc1[N+](=O)[O-]`, the IC50 turned out to be 3.97 µM in the series on SMMC-7721 [23]; 2.05 µM in the series with HepG2 [24]; 2.36 µM in the series on Bel-7402 [25]; 3.56 µM with HepG2 [26]; 5.45 µM in the series with HepG2 [28]. The Cytotoxicity with Bel-7402 [27], in the series on HepG2 [29] and in the series on SMMC-7721 [30] was greater than 70% each time.
Take `CN(CCO)/[N+]([O-])=N/Oc1cc(NCC(=O)O[C@H]2CC[C@]3(C)[C@H]4CC=C5[C@@H]6CC(C)(C)CC[C@]6(C(=O)O[C@@H]6O[C@H](CO)[C@H](O)[C@H](O)[C@H]6O)CC[C@@]5(C)[C@]4(C)CC[C@H]3C2(C)C)c([N+](=O)[O-])cc1[N+](=O)[O-]`: the IC50 in the series on SMMC-7721 [23] is 7.44 µM; with HepG2 [24] it was 3.65 µM; in the series on Bel-7402 [25], 5.68 µM; in the series on HepG2 [26], 6.65 µM; in the series on HepG2 [28], 9.59 µM.
In the case of `C[C@H](Nc1cc(O/N=[N+](\[O-])N(C)CCO)c([N+](=O)[O-])cc1[N+](=O)[O-])C(=O)O[C@H]1CC[C@]2(C)[C@H]3CC=C4[C@@H]5CC(C)(C)CC[C@]5(C(=O)O[C@@H]5O[C@H](CO)[C@H](O)[C@H](O)[C@H]5O)CC[C@@]4(C)[C@]3(C)CC[C@H]2C1(C)C`, the IC50 in the series on SMMC-7721 [23] worked out at 8.84 µM; in the series on HepG2 [24] it was 6.91 µM; in the series with Bel-7402 [25], 7.38 µM; in the series on HepG2 [26] it was 7.89 µM; in the series on HepG2 [28] it was 9.12 µM.
Regarding `CCOC(=O)N1CCN(/[N+]([O-])=N/Oc2ccc([N+](=O)[O-])cc2[N+](=O)[O-])CC1`, the values for the Stability entry in series [31] and in series [17] were “Unstable” and “Stable”, respectively. Moreover, the IC50 amounted to 7.31 µM in the series with SMMC-7721 [23]; 5.19 µM in the series with HepG2 [24]; 5.17 µM in the series on Bel-7402 [25]; 7.12 µM with HepG2 [26]; 12.2 µM in the series with HepG2 [28]. Moreover, the Cytotoxicity in the series on Bel-7402 [27], in the series with HepG2 [29] and with SMMC-7721 [30] was 67% throughout.
Consider `O=c1[nH]cc(F)c(=O)[nH]1` [FLUOROURACIL], for which, in the series with H22 [32], the inhibition in vivo at 153.8 µmol/kg was 57.5%.
